Assay results taken from PubChem BioAssay AID248 (DTP/NCI, 2004).
Where “and” joins values, the source holds several entries; their conditions need not be identical. Identical values can stand only once. Inconclusive results and toxic doses are left out.

Tested on: L1210 leukemia ip in BDF1 mice, survival T/C
Assay: NCI In Vivo Anticancer Drug Screen. Data for tumor model L1210 Leukemia (intraperitoneal) in B6D2F1 (BDF1) mice
Conditions: endpoint: mean survival time, higher = longer survival
Summary of the method: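 In this screen, tumor-bearing mice given compound are compared to those given vehicle, and their survival values are reported as a treated-to-control quotient.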

[1] = dose: 100.0 mg/kg/injection, schedule: Q01DX009 (ip), vehicle: carboxymethylcellulose (CMC)
[2] = dose: 200.0 mg/kg/injection, schedule: Q01DX009 (ip), vehicle: carboxymethylcellulose (CMC)
[3] = dose: 400.0 mg/kg/injection, schedule: Q01DX009 (ip), vehicle: carboxymethylcellulose (CMC)

With `CCN=C(c1ccc(NC(=O)c2ccc(C(=O)Nc3ccc(C(=NCC)N(CC)CC)cc3)c(Cl)c2)cc1)N(CC)CC` the T/C (dose: 0.94 mg/kg/injection, schedule: Q01DX Z (ip), vehicle: carboxymethylcellulose (CMC)) was 94 % of control.
In the case of `COc1ccc(-n2c(=O)c(N=Nc3ccccc3C)c(O)n(-c3ccc(Cl)cc3)c2=S)cc1`, the T/C (dose: 50.0 mg/kg/injection, schedule: Q01DX001 (ip), vehicle: Klucel (hydroxypropylcellulose) (HPC)) is reported as 100 % of control, the T/C (dose: 100.0 mg/kg/injection, schedule: Q01DX001 (ip), vehicle: Klucel (hydroxypropylcellulose) (HPC)) is reported as 100 % of control and the T/C (dose: 200.0 mg/kg/injection, schedule: Q01DX001 (ip), vehicle: Klucel (hydroxypropylcellulose) (HPC)) is reported as 102 % of control.
In the case of `O=C(O)C1CCCCC1/C=N/Nc1ccc([N+](=O)[O-])cc1[N+](=O)[O-]` (stereo not given), the T/C (dose: 50.0 mg/kg/injection, schedule: Q01DX001 (ip), vehicle: saline) is reported as 93 % of control and the T/C (dose: 200.0 mg/kg/injection, schedule: Q01DX001 (ip), vehicle: saline) is reported as 89 % of control.
In the case of `CNC(=O)Oc1ccccc1C(Cl)(Cl)Cl`, the T/C (dose: 50.0 mg/kg/injection, schedule: Q01DX009 (ip), vehicle: Klucel (hydroxypropylcellulose) (HPC)) is reported as 97 % of control, the T/C (dose: 100.0 mg/kg/injection, schedule: Q01DX009 (ip), vehicle: Klucel (hydroxypropylcellulose) (HPC)) is reported as 101 % of control and the T/C (dose: 200.0 mg/kg/injection, schedule: Q01DX009 (ip), vehicle: Klucel (hydroxypropylcellulose) (HPC)) is reported as 112 % of control.
For `C/C=C/C1=C(Cl)C(=O)[C@@H](Cl)[C@@]1(O)C(=O)OC`, the T/C (dose: 1.25 mg/kg/injection, schedule: Q01DX009 (ip), vehicle: saline) was 101 % of control, the T/C (dose: 2.5 mg/kg/injection, schedule: Q01DX009 (ip), vehicle: saline) was 97 % of control and the T/C (dose: 2.5 mg/kg/injection, schedule: Q04DX003 (ip), vehicle: saline) was 101 % of control. For the same molecule, the T/C (dose: 5.0 mg/kg/injection, schedule: Q01DX009 (ip), vehicle: saline) was 103 % of control, the T/C (dose: 5.0 mg/kg/injection, schedule: Q04DX003 (ip), vehicle: saline) was 95 % of control and the T/C (dose: 10.0 mg/kg/injection, schedule: Q01DX001 (ip), vehicle: saline) was 94 % of control. The T/C (dose: 10.0 mg/kg/injection, schedule: Q04DX003 (ip), vehicle: saline) was 100 % of control.
`CCCN(CCC)[N+](=O)[O-]` was tested, and the T/C (dose: 100.0 mg/kg/injection, schedule: Q01DX001 (ip), vehicle: other) was 98 % of control, the T/C (dose: 100.0 mg/kg/injection, schedule: Q04DX003 (ip), vehicle: other) was 104 % of control and the T/C (dose: 200.0 mg/kg/injection, schedule: Q01DX001 (ip), vehicle: other) was 93 % of control. The T/C (dose: 200.0 mg/kg/injection, schedule: Q04DX003 (ip), vehicle: other) was 101 % of control, the T/C (dose: 400.0 mg/kg/injection, schedule: Q01DX001 (ip), vehicle: other) was 97 % of control and the T/C (dose: 400.0 mg/kg/injection, schedule: Q04DX003 (ip), vehicle: other) was 98 % of control.
In the case of `Cn1c(CC(O)(C(F)(F)F)C(F)(F)F)cc2ccccc21`, the T/C (dose: 100.0 mg/kg/injection, schedule: Q01DX009 (ip), vehicle: other) is reported as 95 % of control, the T/C (dose: 200.0 mg/kg/injection, schedule: Q01DX009 (ip), vehicle: other) is reported as 95 % of control and the T/C (dose: 400.0 mg/kg/injection, schedule: Q01DX009 (ip), vehicle: other) is reported as 93 % of control.
With `CCCCCCCCCCCCCCCCCCNC(=O)N(C)Cc1ccccc1` the T/C (dose: 100.0 mg/kg/injection, schedule: Q04DX002 (ip), vehicle: Klucel (hydroxypropylcellulose) (HPC)) was 99 % of control, the T/C (dose: 200.0 mg/kg/injection, schedule: Q04DX002 (ip), vehicle: Klucel (hydroxypropylcellulose) (HPC)) was 96 % of control and the T/C (dose: 400.0 mg/kg/injection, schedule: Q04DX002 (ip), vehicle: Klucel (hydroxypropylcellulose) (HPC)) was 96 % of control.
For `COc1ccc2c3c1OC1C(=O)CCC4C(C2)N(C)CCC314` (stereo not given), the T/C (dose: 75.0 mg/kg/injection, schedule: Q01DX001 (ip), vehicle: saline) was 94 % of control.
With `CCOc1nc(N)nc(N)c1-c1ccc(Cl)cc1` the T/C (dose: 100.0 mg/kg/injection, schedule: Q04DX002 (ip), vehicle: saline with Tween-80) was 92 % of control and the T/C (dose: 200.0 mg/kg/injection, schedule: Q04DX002 (ip), vehicle: saline with Tween-80) was 96 % of control.
In the case of `CC(C)OC(=O)COc1ccc(Cl)cc1`, the T/C [1] is reported as 101 % of control and 102 % of control, the T/C (dose: 100.0 mg/kg/injection, schedule: Q04DX002 (ip), vehicle: carboxymethylcellulose (CMC)) is reported as 101 % of control and 105 % of control and the T/C (dose: 100.0 mg/kg/injection, schedule: Q04DX003 (ip), vehicle: carboxymethylcellulose (CMC)) is reported as 102 % of control. The T/C [2] was 101 % of control and 91 % of control, the T/C (dose: 200.0 mg/kg/injection, schedule: Q04DX002 (ip), vehicle: carboxymethylcellulose (CMC)) was 102 % of control and 106 % of control and the T/C (dose: 200.0 mg/kg/injection, schedule: Q04DX003 (ip), vehicle: carboxymethylcellulose (CMC)) was 104 % of control. The T/C [3] was 108 % of control and 88 % of control, the T/C (dose: 400.0 mg/kg/injection, schedule: Q04DX002 (ip), vehicle: carboxymethylcellulose (CMC)) was 98 % of control and 108 % of control and the T/C (dose: 400.0 mg/kg/injection, schedule: Q04DX003 (ip), vehicle: carboxymethylcellulose (CMC)) was 101 % of control.
For `OC1(C2C=CC=C2)c2ccccc2C=Cc2ccccc21`, the T/C (dose: 9.38 mg/kg/injection, schedule: Q01DX001 (ip), vehicle: other) was 100 % of control, the T/C (dose: 18.75 mg/kg/injection, schedule: Q01DX001 (ip), vehicle: other) was 100 % of control and the T/C (dose: 37.5 mg/kg/injection, schedule: Q01DX001 (ip), vehicle: other) was 100 % of control.
In the case of `Nc1ccc2c(c1)Cc1c(F)ccc(F)c1-2`, the T/C (dose: 50.0 mg/kg/injection, schedule: Q01DX001 (ip), vehicle: carboxymethylcellulose (CMC)) is reported as 107 % of control, the T/C (dose: 100.0 mg/kg/injection, schedule: Q01DX001 (ip), vehicle: carboxymethylcellulose (CMC)) is reported as 102 % of control and the T/C (dose: 200.0 mg/kg/injection, schedule: Q01DX001 (ip), vehicle: carboxymethylcellulose (CMC)) is reported as 109 % of control.
For `COCC(O)C(OC)C(OC)C(C=O)NC(=O)N(CCCl)N=O` (stereo not given), the T/C (dose: 14.0 mg/kg/injection, schedule: Q01DX001 (ip), vehicle: saline with Tween-80) was 159 % of control, the T/C (dose: 22.0 mg/kg/injection, schedule: Q01DX001 (ip), vehicle: saline with Tween-80) was 181 % of control and the T/C (dose: 33.5 mg/kg/injection, schedule: Q01DX001 (ip), vehicle: saline with Tween-80) was 331 % of control. For the same molecule, the T/C (dose: 50.0 mg/kg/injection, schedule: Q01DX001 (ip), vehicle: saline with Tween-80) was 431 % of control, the T/C (dose: 75.0 mg/kg/injection, schedule: Q01DX001 (ip), vehicle: saline with Tween-80) was 489 % of control and the T/C (dose: 112.0 mg/kg/injection, schedule: Q01DX001 (ip), vehicle: saline with Tween-80) was 227 % of control.
In the case of `OCCCCCCCCCCO`, the T/C [1] is reported as 104 % of control, the T/C [2] is reported as 106 % of control and the T/C [3] is reported as 98 % of control.
